Some test systems named below: MOLT-4 leukemia; SK-OV-3 ovarian; SR leukemia; IGROV1 ovarian; CCRF-CEM leukemia; M14 melanoma; TK-10 renal; OVCAR-3 ovarian; HOP-62 NSCLC; SW-620 colon.
Assay in all cases: growth of human tumour cells (NCI), 48 h

Each structure is given as a SMILES string.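 Assay format: 96-well plates, 48-hour exposure. The concentration for full growth arrest is given as TGI.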 Some results are limits rather than exact numbers.

Turning to `CC(=O)CC(=O)Nn1c(-c2cccs2)nc2ccc(I)cc2c1=O`, the TGI with MOLT-4 leukemia, in the assay with SK-OV-3 ovarian, in the assay on SR leukemia, with IGROV1 ovarian, in the assay on CCRF-CEM leukemia and with M14 melanoma was more than 100 µM throughout. In addition, the TGI with TK-10 renal was more than 100 µM; with OVCAR-3 ovarian it was more than 78.5 µM; in the assay on HOP-62 NSCLC, more than 100 µM; in the assay on SW-620 colon it was more than 100 µM.
Turning to `COc1cc(OC)cc(N(C)Cc2cnc3nc(N)nc(N)c3c2C)c1`, the TGI was more than 100 µM in the assay with MOLT-4 leukemia; more than 100 µM in the assay on SK-OV-3 ovarian; more than 100 µM in the assay on SR leukemia; more than 100 µM in the assay on IGROV1 ovarian; more than 100 µM in the assay with CCRF-CEM leukemia; 55.4 µM in the assay with M14 melanoma. Further, the TGI in the assay with TK-10 renal was more than 100 µM; in the assay on OVCAR-3 ovarian, more than 31.6 µM; in the assay on HOP-62 NSCLC, more than 36.1 µM; in the assay on SW-620 colon, more than 100 µM.
On to `Clc1ccc(CCN2CCN(CCCc3ccccc3)CC2)cc1Cl`, for which the TGI in the assay on MOLT-4 leukemia was more than 100 µM; with SK-OV-3 ovarian, 35.1 µM; in the assay with SR leukemia, 78.8 µM; in the assay with IGROV1 ovarian, 31.3 µM; in the assay on CCRF-CEM leukemia it was more than 100 µM; in the assay with M14 melanoma, 28.1 µM. Further, the TGI in the assay with TK-10 renal came to 30.1 µM; in the assay with OVCAR-3 ovarian, 30.9 µM; in the assay with HOP-62 NSCLC, 35.8 µM; in the assay on SW-620 colon, 51.6 µM.
On to `C=CC(C)(C)c1cc([C@@H]2COc3cc(O)ccc3C2=O)c(O)c(OC)c1OC`, for which the TGI in the assay on MOLT-4 leukemia is more than 100 µM; in the assay on SK-OV-3 ovarian, 36.7 µM; in the assay with SR leukemia it was more than 100 µM; with CCRF-CEM leukemia it was more than 100 µM; in the assay with M14 melanoma it was 31.2 µM; in the assay on TK-10 renal, more than 100 µM. Further, the results for the TGI in the assay on OVCAR-3 ovarian and in the assay on SW-620 colon were 23.3 µM and more than 100 µM, respectively.
With `CCOC(=O)C1C(=O)C=C(c2cc(C)ccc2O)CC1c1cccc(Br)c1` (stereo not given), the TGI amounted to 43.7 µM in the assay with MOLT-4 leukemia; 43.1 µM in the assay on SK-OV-3 ovarian; 25.4 µM in the assay on SR leukemia; 39.5 µM in the assay on IGROV1 ovarian; 71.7 µM with CCRF-CEM leukemia; 37 µM in the assay with M14 melanoma. For the same molecule, the TGI in the assay with TK-10 renal is 42.1 µM; with OVCAR-3 ovarian, 84.8 µM; in the assay with HOP-62 NSCLC, more than 100 µM; in the assay with SW-620 colon it was more than 100 µM.
Turning to `CSc1nc(Cl)c2c(n1)Sc1ncnn1C2O` (stereo not given), the TGI in the assay with MOLT-4 leukemia is 27.1 µM; with SK-OV-3 ovarian, 42.2 µM; in the assay on SR leukemia it was more than 100 µM; in the assay on IGROV1 ovarian, 34.2 µM; in the assay with CCRF-CEM leukemia, 10.9 µM; with M14 melanoma, 29 µM. The TGI was determined as 31.2 µM with TK-10 renal, 20.1 µM in the assay on OVCAR-3 ovarian, 41.1 µM in the assay with HOP-62 NSCLC and 36.3 µM with SW-620 colon.
For `COc1cccc2c(NNc3ccc(Cl)cc3)c3ccc([N+](=O)[O-])cc3nc12`, the TGI in the assay on MOLT-4 leukemia was found to be 11.5 µM; with SK-OV-3 ovarian, 32.5 µM; with SR leukemia it was 4 µM; in the assay on CCRF-CEM leukemia, 15.6 µM; with M14 melanoma it was 41.6 µM; with TK-10 renal, 25.8 µM. Moreover, the TGI is 36.3 µM in the assay on OVCAR-3 ovarian, 24.2 µM in the assay with HOP-62 NSCLC and more than 100 µM in the assay on SW-620 colon.
Consider `O=C(C(=O)n1ccc2ccccc21)c1c[nH]c2ccccc12`, for which the TGI with MOLT-4 leukemia, with SK-OV-3 ovarian, in the assay with SR leukemia, in the assay with IGROV1 ovarian, in the assay on CCRF-CEM leukemia and in the assay on M14 melanoma was more than 10 µM each time. For the same molecule, the TGI with TK-10 renal, with OVCAR-3 ovarian, in the assay with HOP-62 NSCLC and in the assay on SW-620 colon was more than 10 µM in each case.
As to `Fc1ccccc1N=c1oc2ccc(Br)cc2cc1-c1nc2ccccc2[nH]1`, the TGI was more than 100 µM in the assay with MOLT-4 leukemia; 32.9 µM with SK-OV-3 ovarian; more than 100 µM in the assay on SR leukemia; more than 42.1 µM with IGROV1 ovarian; more than 100 µM with CCRF-CEM leukemia; 35.8 µM with M14 melanoma. The figures for the TGI in the assay on TK-10 renal, with HOP-62 NSCLC and in the assay on SW-620 colon were 17.2 µM, 28.1 µM and more than 100 µM, respectively.
`CN1CCN(c2nc3c(c(=O)n(C)c(=O)n3C)n2C)CC1`: the TGI in the assay with SK-OV-3 ovarian, in the assay on SR leukemia, with IGROV1 ovarian, in the assay with CCRF-CEM leukemia, with M14 melanoma and in the assay on TK-10 renal was more than 100 µM throughout. Besides, the TGI with OVCAR-3 ovarian, in the assay on HOP-62 NSCLC and in the assay on SW-620 colon was more than 100 µM each time.
For the molecule `COC[C@H](Cc1ccccc1)N=Cc1ccccc1`, the TGI with MOLT-4 leukemia, with SK-OV-3 ovarian, in the assay on SR leukemia, in the assay on IGROV1 ovarian, with CCRF-CEM leukemia and in the assay on M14 melanoma was more than 100 µM throughout. Further, the TGI in the assay on TK-10 renal, in the assay on HOP-62 NSCLC and with SW-620 colon was more than 100 µM in each case.
Regarding `CC1=C2CC3=C(C)C(=O)O[C@H]3C[C@@H](C)[C@@H]2CC1`, the TGI with MOLT-4 leukemia, in the assay on SK-OV-3 ovarian, with SR leukemia, in the assay with IGROV1 ovarian, in the assay on CCRF-CEM leukemia and in the assay on M14 melanoma was more than 100 µM each time. The TGI in the assay with TK-10 renal, in the assay on OVCAR-3 ovarian and in the assay on SW-620 colon was more than 100 µM throughout.
For the molecule `c1ccc(C2(c3cc4ccccc4[nH]3)OCCO2)cc1`, the TGI in the assay with MOLT-4 leukemia was 49.4 µM; in the assay on SK-OV-3 ovarian it was more than 100 µM; in the assay on SR leukemia, more than 100 µM; with IGROV1 ovarian it was more than 100 µM; in the assay with CCRF-CEM leukemia, 74 µM; with M14 melanoma, more than 100 µM. Moreover, the TGI in the assay with TK-10 renal, with OVCAR-3 ovarian and with SW-620 colon was more than 100 µM in each case.
`COC(=O)C(I(OS(=O)(=O)c1ccc(C)cc1)c1ccccc1)=P(c1ccccc1)(c1ccccc1)c1ccccc1`: the TGI in the assay with MOLT-4 leukemia is 84.4 µM; with SK-OV-3 ovarian, 52.4 µM; in the assay on SR leukemia, 49.7 µM; in the assay on IGROV1 ovarian, 37.7 µM; in the assay with CCRF-CEM leukemia, more than 100 µM; in the assay on M14 melanoma, 32.4 µM. The TGI with TK-10 renal was 57 µM; in the assay with OVCAR-3 ovarian, 33.4 µM; in the assay on HOP-62 NSCLC, 36.8 µM.
With `N#Cc1ccc(/C=C2\Cc3ccccc3C2=O)cc1`, the TGI in the assay on MOLT-4 leukemia, in the assay with SK-OV-3 ovarian, with SR leukemia, with CCRF-CEM leukemia, in the assay on M14 melanoma and in the assay with TK-10 renal was more than 100 µM each time. In addition, the TGI with OVCAR-3 ovarian, in the assay with HOP-62 NSCLC and in the assay with SW-620 colon was more than 100 µM in each case.

These data come from PubChem BioAssay (NCI).
